Measured values reported in patent US11389447B2 (Janssen Sciences Ireland Unlimited Company, priority 2006, dated 2022).
Read-outs that look alike come from different tables or passages of the source.

Test: Kinetic study: plasma kinetics of TMC278 after single IM or SC injection of a nanosuspension;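 note: healthy male beagle dogs injected in both biceps femoris muscles (IM) or both thoracal sides (SC), total volume 0.2 mL/kg, drug measured in plasma from blood samples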
Type: in vivo, male beagle dogs
Conditions: male, beagle, dog, plasma, sc, 5 mg/kg; for AUC(0-t) / Cmax / Tmax: single SC 5 mg/kg TMC278 nanosuspension; for Cmax: read-out: Cmax; for Tmax: read-out: Tmax
Procedure: Six healthy male beagle dogs with body weights ranging from 8 to 16 kg at the start of the study, were used. Each dog was identified by an ear tattoo number. Two dogs were dosed intramuscularly (IM) in the left and right m. biceps femoris (treatment group A). […] Two dogs were dosed subcutaneously (SC) in the left and right thoracal region. The injection volume was 2×0.1 ml/kg in all treatment groups. A 20 G needle was used.
Blood samples of 3 ml were taken from the left jugular vein from all dogs on day 0 at 0 h (predose), 20 min, 1 h, 3 h, 8 h and 24 h post-dose and further on days 2, 3, 6, 8, 10, 13, 16, 20, 23, 27, 29, 36, 43, 50, 57, 64, 71, 78, 85 and 92 at approximately 8 AM. Blood samples were placed on EDTA, EDTA Vacuette Greiner, Cat. No. 454086, Greiner Labortechnik N.V.). Within 2 h of blood sampling, samples were centrifuged at room temperature at about 1900×g for 10 minutes to allow plasma separation. Plasma was immediately transferred into a second tube and stored in the freezer within 2 hours after the start of centrifugation.

Cc1cc(C=CC#N)cc(C)c1Nc1ccnc(Nc2ccc(C#N)cc2)n1 [TMC278, 4-[[4-[[4-(2-cyanoethenyl)-2,6-dimethylphenyl]amino]-2-pyrimidinyl]amino]benzonitrile]
concentration at 1368 h (plasma concentration of TMC278, single SC 5 mg/kg TMC278 nanosuspension, dog 19349, 1368 h (d57)): 2.52 ng/mL | concentration at 1536 h (plasma concentration of TMC278, single SC 5 mg/kg TMC278 nanosuspension, dog 19349, 1536 h (d64)): 2.05 ng/mL | concentration at 1704 h (plasma concentration of TMC278, single SC 5 mg/kg TMC278 nanosuspension, dog 19349, 1704 h (d71)): 3.57 ng/mL | concentration at 1872 h (plasma concentration of TMC278, single SC 5 mg/kg TMC278 nanosuspension, dog 19349, 1872 h (d78)): 1.91 ng/mL | concentration at 2040 h (plasma concentration of TMC278, single SC 5 mg/kg TMC278 nanosuspension, dog 19349, 2040 h (d85)): 2.82 ng/mL | concentration at 2208 h (plasma concentration of TMC278, single SC 5 mg/kg TMC278 nanosuspension, dog 19349, 2208 h (d92)): 2.49 ng/mL | concentration at 0 h (plasma concentration of TMC278, single SC 5 mg/kg TMC278 nanosuspension, mean of 2 dogs, 0 h (d0, predose)): < 1 ng/mL | concentration at 1 h (plasma concentration of TMC278, single SC 5 mg/kg TMC278 nanosuspension, mean of 2 dogs, 1 h): 1.5 ng/mL | concentration at 3 h (plasma concentration of TMC278, single SC 5 mg/kg TMC278 nanosuspension, mean of 2 dogs, 3 h): 8.19 ng/mL | concentration at 8 h (plasma concentration of TMC278, single SC 5 mg/kg TMC278 nanosuspension, mean of 2 dogs, 8 h): 20.7 ng/mL | concentration at 24 h (plasma concentration of TMC278, single SC 5 mg/kg TMC278 nanosuspension, mean of 2 dogs, 24 h (d1)): 22.1 ng/mL | concentration at 48 h (plasma concentration of TMC278, single SC 5 mg/kg TMC278 nanosuspension, mean of 2 dogs, 48 h (d2)): 32 ng/mL | concentration at 72 h (plasma concentration of TMC278, single SC 5 mg/kg TMC278 nanosuspension, mean of 2 dogs, 72 h (d3)): 28.4 ng/mL | concentration at 144 h (plasma concentration of TMC278, single SC 5 mg/kg TMC278 nanosuspension, mean of 2 dogs, 144 h (d6)): 25.8 ng/mL | concentration at 192 h (plasma concentration of TMC278, single SC 5 mg/kg TMC278 nanosuspension, mean of 2 dogs, 192 h (d8)): 20.4 ng/mL | concentration at 240 h (plasma concentration of TMC278, single SC 5 mg/kg TMC278 nanosuspension, mean of 2 dogs, 240 h (d10)): 33.2 ng/mL | concentration at 312 h (plasma concentration of TMC278, single SC 5 mg/kg TMC278 nanosuspension, mean of 2 dogs, 312 h (d13)): 30.3 ng/mL | concentration at 384 h (plasma concentration of TMC278, single SC 5 mg/kg TMC278 nanosuspension, mean of 2 dogs, 384 h (d16)): 19.2 ng/mL | concentration at 480 h (plasma concentration of TMC278, single SC 5 mg/kg TMC278 nanosuspension, mean of 2 dogs, 480 h (d20)): 25.5 ng/mL | concentration at 648 h (plasma concentration of TMC278, single SC 5 mg/kg TMC278 nanosuspension, mean of 2 dogs, 648 h (d27)): 15 ng/mL | concentration at 696 h (plasma concentration of TMC278, single SC 5 mg/kg TMC278 nanosuspension, mean of 2 dogs, 696 h (d29)): 15.8 ng/mL | concentration at 864 h (plasma concentration of TMC278, single SC 5 mg/kg TMC278 nanosuspension, mean of 2 dogs, 864 h (d36)): 9.1 ng/mL | concentration at 1032 h (plasma concentration of TMC278, single SC 5 mg/kg TMC278 nanosuspension, mean of 2 dogs, 1032 h (d43)): 5.63 ng/mL | concentration at 1200 h (plasma concentration of TMC278, single SC 5 mg/kg TMC278 nanosuspension, mean of 2 dogs, 1200 h (d50)): 4.89 ng/mL | concentration at 1368 h (plasma concentration of TMC278, single SC 5 mg/kg TMC278 nanosuspension, mean of 2 dogs, 1368 h (d57)): 3.65 ng/mL | concentration at 1536 h (plasma concentration of TMC278, single SC 5 mg/kg TMC278 nanosuspension, mean of 2 dogs, 1536 h (d64)): 4.25 ng/mL | concentration at 1704 h (plasma concentration of TMC278, single SC 5 mg/kg TMC278 nanosuspension, mean of 2 dogs, 1704 h (d71)): 3.77 ng/mL | concentration at 1872 h (plasma concentration of TMC278, single SC 5 mg/kg TMC278 nanosuspension, mean of 2 dogs, 1872 h (d78)): 2.79 ng/mL | concentration at 2040 h (plasma concentration of TMC278, single SC 5 mg/kg TMC278 nanosuspension, mean of 2 dogs, 2040 h (d85)): 5.71 ng/mL | concentration at 2208 h (plasma concentration of TMC278, single SC 5 mg/kg TMC278 nanosuspension, mean of 2 dogs, 2208 h (d92)): 2.77 ng/mL | AUC(0-t) (dog 19129, read-out: AUC0-312 h): 6910 ng·h/mL | AUC(0-t) (dog 19129, read-out: AUC0-696 h): 15900 ng·h/mL | AUC(0-t) (dog 19129, read-out: AUC0-2208 h): 26400 ng·h/mL | Cmax (dog 19129): 34.8 ng/mL | Tmax (dog 19129): 48 h | AUC(0-t) (dog 19349, read-out: AUC0-312 h): 9880 ng·h/mL | AUC(0-t) (dog 19349, read-out: AUC0-696 h): 16700 ng·h/mL | AUC(0-t) (dog 19349, read-out: AUC0-2208 h): 22400 ng·h/mL | Tmax (dog 19349): 240 h | AUC(0-t) (mean of 2 dogs, read-out: AUC0-312 h): 8400 ng·h/mL | AUC(0-t) (mean of 2 dogs, read-out: AUC0-696 h): 16300 ng·h/mL | AUC(0-t) (mean of 2 dogs, read-out: AUC0-2208 h): 24400 ng·h/mL | Cmax (mean of 2 dogs): 38.4 ng/mL | Tmax (mean of 2 dogs): 144 h
